Earlier results as cited in patent US20080262086A1, “SUBSTITUTED ANTHRANILIC ACIDS” (AUSPEX PHARMACEUTICALS, INC., priority 2007, published 2008).

Tests used:
[1] = short half-life of bumetanide, background
[2] = tested on: reabsorption of sodium, potassium, and chloride; conditions: times more potent than furosemide

With `CCCCNc1cc(C(=O)O)cc(S(N)(=O)=O)c1Oc1ccccc1` [Bumetanide, 3-Butylamino-4-phenoxy-5-sulfamoyl-benzoic acid] as the compound, how does the half-life [1] read?
Its half-life is 1 to 1.5 h.

And the “potency relative to furosemide” value [2]?
The value was “approximately 40 times”.
